# From ChEMBL document CHEMBL1212786 (Antimicrob Agents Chemother, 2010)
# Experiments:
# [1] = Intrinsic clearance in CD1 mouse liver microsomes at 1 uM after 5 to 30 mins by MS analysis in presence of NADPH; format: ADME, Microsome
# Cytochrome P450 3A4 = Cytochrome P450 3A4 (Homo sapiens, UniProt P08684); assay: Inhibition of human recombinant CYP3A4 after 30 mins; format: ADME
# Cytochrome P450 2C9 = Cytochrome P450 2C9 (Homo sapiens, UniProt P11712); assay: Inhibition of human recombinant CYP2C9 after 30 mins; format: ADME
# Sequence of Cytochrome P450 2C9 (P11712 whole entry): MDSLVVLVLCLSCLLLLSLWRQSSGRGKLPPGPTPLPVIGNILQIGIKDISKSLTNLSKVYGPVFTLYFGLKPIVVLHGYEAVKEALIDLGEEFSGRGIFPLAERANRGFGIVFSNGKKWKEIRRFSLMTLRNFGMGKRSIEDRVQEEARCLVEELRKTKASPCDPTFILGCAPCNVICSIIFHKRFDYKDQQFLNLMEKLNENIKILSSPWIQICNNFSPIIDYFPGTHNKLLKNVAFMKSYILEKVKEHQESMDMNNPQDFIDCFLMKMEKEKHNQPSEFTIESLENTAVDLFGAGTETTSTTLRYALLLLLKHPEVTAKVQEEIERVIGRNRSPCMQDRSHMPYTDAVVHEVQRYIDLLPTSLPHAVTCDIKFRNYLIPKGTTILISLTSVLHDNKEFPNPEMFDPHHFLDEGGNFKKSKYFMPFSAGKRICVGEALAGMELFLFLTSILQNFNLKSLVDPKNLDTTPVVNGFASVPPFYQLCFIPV
# Cytochrome P450 1A2 = target: T1, Cytochrome P450 1A2 (Homo sapiens, UniProt P05177); assay: Inhibition of human recombinant CYP1A2 after 30 mins; format: ADME
# T1 sequence (P05177 whole entry): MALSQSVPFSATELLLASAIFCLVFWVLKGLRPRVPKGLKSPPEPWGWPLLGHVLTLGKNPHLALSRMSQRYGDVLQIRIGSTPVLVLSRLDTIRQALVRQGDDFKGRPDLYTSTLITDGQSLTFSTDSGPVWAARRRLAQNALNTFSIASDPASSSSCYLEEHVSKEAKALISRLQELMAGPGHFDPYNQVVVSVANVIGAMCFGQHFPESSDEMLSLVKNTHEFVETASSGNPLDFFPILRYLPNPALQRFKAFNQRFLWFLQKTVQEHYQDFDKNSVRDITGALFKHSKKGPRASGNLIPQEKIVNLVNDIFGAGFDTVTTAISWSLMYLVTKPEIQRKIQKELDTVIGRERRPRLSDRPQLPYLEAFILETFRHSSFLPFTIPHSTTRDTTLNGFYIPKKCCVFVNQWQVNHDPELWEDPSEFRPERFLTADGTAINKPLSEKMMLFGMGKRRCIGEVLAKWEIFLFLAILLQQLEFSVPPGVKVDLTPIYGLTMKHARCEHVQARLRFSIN
# [2] = Cmax in Sprague-Dawley rat at 5 mg/kg, iv after 24 hrs by LC/MS/MS analysis; format: ADME, organism-based; parameters: dose 5 mg/kg, route intravenous; conditions: in vivo
# [3] = Cmax in monkey at 1.4 mg/kg, iv after 24 hrs by LC/MS/MS analysis; format: ADME, organism-based, Macaca mulatta; parameters: dose 1.4 mg/kg, route intravenous; conditions: rhesus monkey, in vivo
# [4] = Apparent volume of distribution in Sprague-Dawley rat at 5 mg/kg, iv after 24 hrs by LC/MS/MS analysis; format: ADME, organism-based; parameters: dose 5 mg/kg, route intravenous; conditions: in vivo, read-out: Vz
# [5] = Apparent volume of distribution in monkey at 1.4 mg/kg, iv after 24 hrs by LC/MS/MS analysis; format: ADME, organism-based, Macaca mulatta; parameters: dose 1.4 mg/kg, route intravenous; conditions: rhesus monkey, in vivo, read-out: Vz
# [6] = Apparent elimination half life in Sprague-Dawley rat at 2 mg/kg, iv by LC/MS/MS analysis; format: ADME, organism-based; parameters: dose 2 mg/kg, route intravenous; conditions: in vivo
# [7] = Apparent elimination half life in monkey at 1.4 mg/kg, iv by LC/MS/MS analysis; format: ADME, organism-based, Macaca mulatta; parameters: dose 1.4 mg/kg, route intravenous; conditions: rhesus monkey, in vivo
# [8] = AUC (0 to infinity) in Sprague-Dawley rat at 5 mg/kg, iv after 24 hrs by LC/MS/MS analysis; format: ADME, organism-based; parameters: time infinity, dose 5 mg/kg, route intravenous; conditions: plasma
# [9] = AUC (0 to infinity) in monkey at 1 mg/kg, iv after 24 hrs by LC/MS/MS analysis; format: ADME, organism-based, Macaca mulatta; parameters: time infinity, dose 1 mg/kg, route intravenous; conditions: rhesus monkey, plasma
# [10] = Cmax in Sprague-Dawley rat at 5 mg/kg, po after 24 hrs by LC/MS/MS analysis; format: ADME, organism-based; parameters: dose 5 mg/kg, route oral; conditions: in vivo
# [11] = Cmax in monkey at 5 mg/kg, po after 24 hrs by LC/MS/MS analysis; format: ADME, organism-based, Macaca mulatta; parameters: dose 5 mg/kg, route oral; conditions: rhesus monkey, in vivo
# [12] = Cmax in Sprague-Dawley rat at 10 mg/kg, po after 24 hrs by LC/MS/MS analysis; format: ADME, organism-based; parameters: dose 10 mg/kg, route oral; conditions: in vivo
# [13] = Tmax in Sprague-Dawley rat at 5 mg/kg, po by LC/MS/MS analysis; format: ADME, organism-based; parameters: dose 5 mg/kg, route oral; conditions: in vivo
# [14] = Tmax in Sprague-Dawley rat at 10 mg/kg, po by LC/MS/MS analysis; format: ADME, organism-based; parameters: dose 10 mg/kg, route oral; conditions: in vivo
# [15] = AUC (0 to infinity) in Sprague-Dawley rat at 20 mg/kg, po after 24 hrs by LC/MS/MS analysis; format: ADME, organism-based; parameters: time infinity, dose 20 mg/kg, route oral; conditions: plasma
# [16] = AUC (0 to infinity) in monkey at 5 mg/kg, po after 24 hrs by LC/MS/MS analysis; format: ADME, organism-based, Macaca mulatta; parameters: time infinity, dose 5 mg/kg, route oral; conditions: rhesus monkey, plasma
# [17] = Apparent elimination half life Sprague-Dawley rat at 20 mg/kg, po after 24 hrs by LC/MS/MS analysis; format: ADME, organism-based; parameters: dose 20 mg/kg, route oral; conditions: in vivo
# [18] = Apparent elimination half life in monkey at 7.5 mg/kg, po after 24 hrs by LC/MS/MS analysis; format: ADME, organism-based, Macaca mulatta; parameters: dose 7.5 mg/kg, route oral; conditions: rhesus monkey, in vivo
# [19] = Oral bioavailability in Sprague-Dawley rat at 5 mg/kg after 24 hrs by LC/MS/MS analysis; format: ADME, organism-based; conditions: in vivo
# [20] = Oral bioavailability in Sprague-Dawley rat at 10 mg/kg after 24 hrs by LC/MS/MS analysis; format: ADME, organism-based; conditions: in vivo
# [21] = Oral bioavailability in monkey at 7.5 mg/kg after 24 hrs by LC/MS/MS analysis; format: ADME, organism-based, Macaca mulatta; conditions: rhesus monkey, in vivo
# [22] = AUC (2 to 24 hrs) in Sprague-Dawley rat liver at 10 mg/kg, po by LC/MS/MS analysis; format: ADME, organism-based; parameters: time 2-24 hr, dose 10 mg/kg, route oral
# [23] = AUC (2 to 24 hrs) in Sprague-Dawley rat liver at 30 mg/kg, po by LC/MS/MS analysis; format: ADME, organism-based; parameters: time upper 24 hr, time lower 2 hr, dose 30 mg/kg, route oral
# [24] = AUC (2 to 24 hrs) in Sprague-Dawley rat whole blood at 30 mg/kg, po by LC/MS/MS analysis; format: ADME, organism-based; parameters: time 2-24 hr, dose 30 mg/kg, route oral
# [25] = Cmax in Sprague-Dawley rat liver at 10 mg/kg, po by LC/MS/MS analysis; format: ADME, organism-based; parameters: dose 10 mg/kg, route oral
# [26] = Cmax in Sprague-Dawley rat whole blood at 10 mg/kg, iv by LC/MS/MS analysis; format: ADME, organism-based; parameters: dose 10 mg/kg, route intravenous
# [27] = Cmax in Sprague-Dawley rat whole blood at 10 mg/kg, po by LC/MS/MS analysis; format: ADME, organism-based; parameters: dose 10 mg/kg, route oral
# Hepatocyte [28] = assay: Cellular uptake in human hepatocytes assessed per mg of cellular protein association with hepatocyte fraction at 0.378 uM after 1 hr by LC/MS/MS analysis; format: ADME, cell-based
# Hepatocyte [29] = assay: Cellular uptake in human hepatocytes assessed per mg of cellular protein association with nonparenchymal fraction at 2.27 uM after 1 hr by LC/MS/MS analysis; format: ADME, cell-based
# [30] = Cytotoxicity against human Huh7ET cells assessed as lactate dehydrogenase release up to 5 uM after 72 hrs in presence of 10 to 40% human serum; format: cell-based; conditions: huh-7, 72 h
# Hepatitis C virus [31] = assay: Antiviral activity against Hepatitis C virus infected in human Huh7ET cells assessed as inhibition of viral replication at 0.02 to 5 uM by luciferase reporter gene assay; format: functional, organism-based; conditions: Hepacivirus hominis, Huh-7, TDE = time-dependent effect
# [32] = Cytotoxicity against human Huh7ET cells assessed as lactate dehydrogenase release after 72 hrs; format: cell-based, Huh-7
# [33] = Cytotoxicity against human Huh7 cells assessed as lactate dehydrogenase release after 72 hrs; format: cell-based, Huh-7
# Hepatitis C virus [34] = assay: microbe, parasite or virus in culture; conditions: Huh-7, 72 h
# Hepatitis C virus [35] = assay: microbe, parasite or virus in culture; conditions: Huh-7, 72 h; remark: listed apart in the source
# Hepatitis C virus [36] = assay: microbe, parasite or virus in culture; conditions: Huh-7, 120 h
# Description: Antiviral activity against Hepatitis C virus infected in human Huh7ET cells assessed as inhibition of viral replication after 120 hrs by luciferase reporter gene assay
# Hepatitis C virus [37] = assay: microbe, parasite or virus in culture; conditions: Huh-7, 72 h; remark: listed apart in the source
# Description: Antiviral activity against Hepatitis C virus infected in human Huh7ET cells assessed as inhibition of viral replication after 72 hrs by RT-PCR analysis
# Hepatitis C virus [38] = assay: microbe, parasite or virus in culture; conditions: Huh-7, 120 h; remark: listed apart in the source
# Description: Antiviral activity against Hepatitis C virus infected in human Huh7ET cells assessed as inhibition of viral replication after 120 hrs by RT-PCR analysis
# Sequence of Cytochrome P450 3A4 (P08684 whole entry): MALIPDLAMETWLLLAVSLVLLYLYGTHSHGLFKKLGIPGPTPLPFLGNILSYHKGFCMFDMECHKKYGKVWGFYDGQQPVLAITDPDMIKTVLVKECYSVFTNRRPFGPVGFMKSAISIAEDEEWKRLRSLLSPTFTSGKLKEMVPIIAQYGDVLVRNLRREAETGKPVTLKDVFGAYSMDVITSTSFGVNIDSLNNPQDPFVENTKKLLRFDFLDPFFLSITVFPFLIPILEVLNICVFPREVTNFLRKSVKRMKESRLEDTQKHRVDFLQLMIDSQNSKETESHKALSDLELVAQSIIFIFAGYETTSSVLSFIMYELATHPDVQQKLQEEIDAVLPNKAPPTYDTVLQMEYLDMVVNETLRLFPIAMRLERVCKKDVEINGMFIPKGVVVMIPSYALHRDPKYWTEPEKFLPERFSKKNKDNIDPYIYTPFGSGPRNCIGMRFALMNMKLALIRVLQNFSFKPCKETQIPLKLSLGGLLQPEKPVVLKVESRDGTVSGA
compound,measurement,setting,value
"C/C=C/C[C@@H](C)[C@@H](O)[C@H]1C(=O)N[C@@H](CC)C(=O)N(C)C(SCCN(C)C)C(=O)N(C)[C@@H](CC(C)(C)O)C(=O)N[C@@H](C(C)C)C(=O)N(C)[C@@H](CC(C)C)C(=O)N[C@@H](C)C(=O)N[C@H](C)C(=O)N(C)[C@@H](CC(C)C)C(=O)N(C)[C@@H](CC(C)C)C(=O)N(C)[C@@H](C(C)C)C(=O)N1C (single isomer, unassigned) [SCY 635]",clearance,[1],9 µL/min/mg
same,IC50,Cytochrome P450 3A4,58500 nM
same,IC50,Cytochrome P450 2C9,13400 nM
same,IC50,Cytochrome P450 1A2,> 100000 nM
same,Cmax,[2],2990 ng/mL
same,Cmax,[3],2310 ng/mL
same,Vd,[4],4.3 L/kg
same,Vd,[5],1.69 L/kg
same,half-life,[6],26.3 h
same,half-life,[7],42.2 h
same,AUC(0-inf),[8],37300 ng·h/mL
same,AUC(0-inf),[9],31500 ng·h/mL
same,Cmax,[10],900 ng/mL
same,Cmax,[11],1810 ng/mL
same,Cmax,[12],1400 ng/mL
same,Tmax,[13],4 h
same,Tmax,[14],8 h
same,AUC(0-inf),[15],42500 ng·h/mL
same,AUC(0-inf),[16],27900 ng·h/mL
same,half-life,[17],23.8 h
same,half-life,[18],33.1 h
same,bioavailability,[19],23.1%
same,bioavailability,[20],23.6%
same,bioavailability,[21],15.7%
same,AUC(0-t),[22],120000 ng·h/mL
same,AUC(0-t),[23],141000 ng·h/mL
same,AUC(0-t),[24],30200 ng·h/mL
same,Cmax,[25],11100 ng/mL
same,Cmax,[26],3360 ng/mL
same,Cmax,[27],1870 ng/mL
same,Drug uptake,Hepatocyte [28],1.03 ng/mg
same,Drug uptake,Hepatocyte [29],3.16 ng/mg
same,Activity,[30],Non-toxic
same,Activity,Hepatitis C virus [31],tde
same,CC50 at 72 h,[32],14200 nM
same,CC50 at 72 h,[33],13700 nM
same,EC50,Hepatitis C virus [34],90 nM
same,EC50,Hepatitis C virus [35],110 nM
same,EC50,Hepatitis C virus [36],150 nM
same,EC50,Hepatitis C virus [37],160 nM
same,EC50,Hepatitis C virus [38],150 nM
